The values below come from patent US10968184B2, “Pyrimidine prodrugs for the treatment of viral infections and further diseases” (Janssen Sciences Ireland Unlimited Company, priority 2016, dated 2021).

Each structure is given as a SMILES string.

Data set [1] can be described thus: in vitro. Conditions: rat, hepatocytes.
A short description of data set [2]: in vitro. To be noted: human, liver microsomes.
The nature of data set [3]: in vitro. Conditions: rat, plasma.
Data set [4] relates to P-glycoprotein (human MDR1). Put plainly: in vitro. Conditions: dog, MDCK-MDR1.
Data set [5] in a line: in vitro. To be noted: simulated gi fluid.
A short description of data set [6]: in vitro. To be noted: human, hepatocytes.
A short description of data set [7]: Pharmacokinetics in rat after oral administration. To be noted: SD rats, aqueous solution, 5 mg/kg eq dose, prodrug in plasma; for AUC(0-t): read-out: AUC(0-last) prodrug. It is filed as in vivo. The protocol: Pharmacokinetics in rat. Prodrugs were administered orally to SD rats using aqueous solution at 5 mg/kg eq dose. Plasma samples were collected at different time points and the concentration of parent and prodrug was analyzed using LC-MS/MS. PK parameters were calculated using Phoenix WinNonlin 6.3. Cmax (ng/mL) and AUC(0-last) (ng·h/mL) were determined for both prodrug and parent.

The nature of data set [8]: in vitro. To be noted: rat, liver microsomes.
A short description of data set [9]: in vitro. To be noted: human, plasma.
Data set [10] is described as follows: in vitro. To be noted: simulated gi fluid. This is another data set of the same source.

`CCCC[C@H](CO)Nc1nc(N(C)C)ncc1OC` [Compound 5, (R)-2-((2-(dimethylamino)-5-methoxypyrimidin-4-yl)amino)hexan-1-ol] registered a melting point of 86.1 °C. This compound also yielded a hepatocyte CLint at 1 μM in “in vitro [1]” of 280 µL/min/1e6 cells. In addition, in the data set “in vitro [2]”, the microsomal CLint at 1 μM worked out at 14 µL/min/mg. For the same compound, the half-life at 1 μM in the data set “in vitro [3]” is greater than 30 h. Also, in data set [4], the Papp A→B is 20 ×10⁻⁶ cm/s and the efflux ratio was determined as 3.2. In the data set “in vitro [5]”, this compound yielded a half-life greater than 6 h. In addition, the hepatocyte CLint at 1 μM in “in vitro [6]” amounted to 80 µL/min/1e6 cells. Also, in [7], the Cmax was determined as 88 ng/mL and the AUC(0-t) was 144 ng·h/mL. This compound also yielded a microsomal CLint at 1 μM in the data set “in vitro [8]” of 141 µL/min/mg. The same compound gave a half-life at 1 μM in the data set “in vitro [9]” greater than 30 h. This compound showed a half-life in “in vitro [10]” greater than 6 h.
Take `CCCC[C@H](CO)Nc1nc(NC)ncc1OC` [Compound 6]: the intrinsic metabolic clearance (hepatocyte CLint) at 1 μM in “in vitro [1]” worked out at 120 µL/min/1e6 cells; in the data set “in vitro [6]”, 33 µL/min/1e6 cells. Also, the results for the intrinsic clearance (microsomal CLint) at 1 μM in the data set “in vitro [2]” and in “in vitro [8]” were 18 µL/min/mg and 25 µL/min/mg, respectively. The half-life at 1 μM in the data set “in vitro [3]” and in “in vitro [9]” was greater than 30 h in each case. In addition, in [4], the Papp A→B was found to be 6.8 ×10⁻⁶ cm/s. Further, in data set [4], the efflux ratio was 10. Moreover, the half-life in the data set “in vitro [5]” and in the data set “in vitro [10]” was greater than 6 h in each case. Further, the Cmax in data set [7] turned out to be 129 ng/mL. The AUC(0-t) in data set [7] was 206 ng·h/mL.
With `CCCC[C@H](CO)Nc1nc(NC2CCCO2)ncc1OC` (stereo partly drawn) [Compound 9, (2R)-2-((5-methoxy-2-((tetrahydrofuran-2-yl)amino)pyrimidin-4-yl)-amino)hexan-1-ol], the microsomal CLint at 1 μM in the data set “in vitro [2]” amounted to 115 µL/min/mg; in the data set “in vitro [8]”, 27 µL/min/mg. The half-life at 1 μM in the data set “in vitro [3]” and in the data set “in vitro [9]” was less than 0.4 h throughout.
As to `CCCC[C@H](CO)Nc1nc(NC2CCCCO2)ncc1OC` (stereo partly drawn) [Compound 10, (2R)-2-((5-methoxy-2-((tetrahydro-2H-pyran-2-yl)amino)pyrimidin-4-yl)-amino)hexan-1-ol], the intrinsic clearance (microsomal CLint) at 1 μM was 88 to 90 µL/min/mg in “in vitro [2]” and greater than 347 µL/min/mg in the data set “in vitro [8]”. Further, the half-life at 1 μM in “in vitro [3]” and in the data set “in vitro [9]” was 1.4 h each time. Besides, in data set [4], the Papp A→B was 1.8 ×10⁻⁶ cm/s. Besides, the efflux ratio in [4] was 33.
